The results in this text go back to ChEMBL document CHEMBL1287752, “Changes in flavonoid content and tyrosinase inhibitory activity in kenaf leaf extract after far-infrared treatment” (Bioorg Med Chem Lett, 2010).

In one assay the target is T1, Tyrosinase (Agaricus bisporus, UniProt O42713).
T1 sequence (O42713 whole entry): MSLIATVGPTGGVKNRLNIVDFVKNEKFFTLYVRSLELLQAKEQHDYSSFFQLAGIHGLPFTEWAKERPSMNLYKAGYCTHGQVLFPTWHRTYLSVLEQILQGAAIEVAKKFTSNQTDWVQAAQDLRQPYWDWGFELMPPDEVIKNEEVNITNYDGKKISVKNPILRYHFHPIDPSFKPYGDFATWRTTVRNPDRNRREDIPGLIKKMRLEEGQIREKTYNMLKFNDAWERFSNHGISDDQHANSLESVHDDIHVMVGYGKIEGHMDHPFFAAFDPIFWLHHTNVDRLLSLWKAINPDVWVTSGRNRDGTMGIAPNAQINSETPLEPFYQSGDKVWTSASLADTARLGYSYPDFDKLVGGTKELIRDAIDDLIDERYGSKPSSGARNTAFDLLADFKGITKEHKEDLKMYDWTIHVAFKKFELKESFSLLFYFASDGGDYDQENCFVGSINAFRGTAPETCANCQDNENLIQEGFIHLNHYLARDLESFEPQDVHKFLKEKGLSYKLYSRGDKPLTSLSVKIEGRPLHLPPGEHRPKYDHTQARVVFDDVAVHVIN
The experiment in a line: Inhibition of mushroom tyrosinase after 20 mins by spectrophotometric analysis.

Assay [1] deals with T2, Tyrosinase (Agaricus bisporus) (UniProt O42713).
T2 sequence (whole entry): T1 sequence (O42713 whole entry)
As to conditions: 400 uM.
Description: Inhibition of mushroom tyrosinase at 400 uM after 20 mins by spectrophotometric analysis

`C[C@@H]1O[C@@H](Oc2cc(O)c3c(=O)c(O)c(-c4ccc(O)cc4)oc3c2)[C@H](O)[C@H](O)[C@H]1O` [ALPHA-RHAMNOISOROBIN]: the half-inhibitory concentration (IC50) (in general, the concentration at which inhibition is half-maximal) on Tyrosinase is > 400 µM. Besides, in assay [1], the inhibition (usually the change of the read-out against control, counted positive when it falls) was < 39.1%.
At Tyrosinase, `O=c1c(O)c(-c2ccc(O)cc2)oc2cc(O)cc(O)c12` [KAEMPFEROL] displayed an IC50 of 171 µM.
